Measured values from publication PMC10301603, “Potent and Selective Benzothiazole-Based Antimitotics with Improved Water Solubility: Design, Synthesis, and Evaluation as Novel Anticancer Agents” (Pharmaceutics, 2023).
Values after ≈ are worked out from the molar mass of the structure shown. Like-named read-outs stand apart in the source and are kept apart here.

Columns and labels:
[1] = system: HT-29 cells; experiment: Cell growth inhibition (MTT) in the presence of 10 µM verapamil (sensitivity to MDR efflux pumps); type: cell-based, human; conditions: 10 µM verapamil (P-gp/MDR1 inhibitor)
Experimental: (§1) Cells were plated in 96-well plates (100 µL/well) at the following concentrations: 30,000 cells/mL (HepG2, U87 MG, T98G, C6, LNCaP, PC3, and HT-29 cells) or 15,000 cells/mL (HeLa and MCF-7 cells). Previous experiments were performed to choose the optimal cell concentration (70–80% confluence) and avoid the formation of cell aggregates. Cells were incubated in complete DMEM or RPMI 1640 medium (see above) at 37 °C and 5% CO2 atmosphere for 24 h to allow for cell attachment to the plate. Then, every compound was added (10 µL/well) to a final concentration of 10 µM. Non-treated cells were used as negative controls. The antiproliferative activity of compounds was measured 72 h after the treatments using the MTT reagent (3-[4,5-dimethylthiazol-2-yl]-2,5-diphenyltetrazolium bromide), (MTT Thiazolyl Blue Tetrazolium Bromide, Sigma-Aldrich, St. Louis, MO, USA) dissolved in PBS at 5 mg/mL. Compounds showing antiproliferative effects at 10 µM were selected to determine their IC50 value. For that purpose, compounds were used at different concentrations ranging from 10^−10 to 10^−2 M. Measurements were performed in triplicate, and each experiment was repeated three times. The IC50 value was determined for every compound using Origin software (OriginLab, Washington, USA). To study the sensitivity to MDR efflux pumps of compounds, the IC50 values were determined by following the same procedure but in the presence of verapamil (final concentration of 10 µM).

[2] = system: GL261 cells; experiment: Cell growth inhibition assay (MTT); type: cell-based, murine; conditions: Mus musculus, GL261, 72 h after drug exposure
Experimental: (§2) The cell lines were obtained from ATTC (Manassas, VA, USA). HeLa (human cervix epithelioid carcinoma), MCF7 (human breast adenocarcinoma), HepG2 (human hepatocellular carcinoma), U87 MG (human glioblastoma), T98G (human glioblastoma), GL261 (murine glioma), LNCaP (human prostate cancer), PC-3 (human prostate cancer), and HEK-293 (human embryonic kidney) were grown in Dulbecco’s modified Eagle’s medium (DMEM, Gibco, Waltham, MA, USA), supplemented with 10% (v/v) heat-inactivated fetal bovine serum (HIFBS, Sigma-Aldrich, St. Louis, MO, USA)), 2 mM L-glutamine, 100 μg/mL streptomycin, and 100 units/mL penicillin (Gibco, Waltham, MA, USA) at 37 °C in saturated humidity atmosphere containing 95% air and 5% CO2. Cell line HT-29 (human colon carcinoma) was grown in Roswell Park Memorial Institute (RPMI) 1640 medium (Gibco, Whaltman, MA, USA) supplemented with 10% HIFBS, 100 μg/mL streptomycin, and 100 units/mL penicillin (Gibco, Whaltman, MA, USA) at 37 °C in humidified 95% air and 5% CO2 atmosphere. MycoAlert kit (Lonza, Norwest, Australia) was used to routinely check the presence of mycoplasma, and only mycoplasma-free cells were employed in the experiments.
as §1

[3] = Aqueous solubility, shake-flask method; type: physicochemical; conditions: pH 7.0 buffer, pH 7, aqueous buffer, thermodynamic from solid, shaking flask, buffered media at pH 7.0, mean of three
Experimental: The aqueous solubility of compounds was measured in a Helios Alfa Spectrophotometer. Calibration lines at the maximum wavelength of absorbance were determined for each compound. Then, following the shake-flask method, a suspension of 5 mg of each compound in 500 µL in pH 7.0 buffer was stirred for 72 h at room temperature. The mixture was then filtrated over a […] filter to remove the insoluble fraction. The concentration of the compound in the resulting saturated solution was determined via UV absorbance measurement and interpolation in the calibration line. The aqueous solubility values are given as the average of three independent measurements.

[4] = system: tumor cell lines; experiment: Cell growth inhibition assay (MTT), summary statements over several cell lines; type: cell-based; conditions: read-out: antiproliferative IC50
Experimental: as §1

[5] = system: T98G cells; experiment: Cell growth inhibition assay (MTT); type: cell-based, human; conditions: Homo sapiens, T98G, 72 h after drug exposure
Experimental: as §2, §1

[6] = system: LNCaP cells; experiment: Cell growth inhibition assay (MTT); type: cell-based, human; conditions: Homo sapiens, LNCaP, 72 h after drug exposure
Experimental: as §2, §1

[7] = system: HepG2 cells; experiment: Cell growth inhibition assay (MTT); type: cell-based, human; conditions: Homo sapiens, HepG2, 72 h after drug exposure
Experimental: as §2, §1

[8] = system: MCF7 cells; experiment: Cell growth inhibition assay (MTT); type: cell-based, human; conditions: Homo sapiens, MCF7; MTT, 72 h after drug exposure
Experimental: as §2, §1

[9] = system: PC-3 cells; experiment: Cell growth inhibition assay (MTT); type: cell-based, human; conditions: Homo sapiens, PC-3, 72 h after drug exposure
Experimental: as §2, §1

[10] = system: HeLa cells; experiment: Cell growth inhibition assay (MTT); type: cell-based, human; conditions: Homo sapiens, HeLa, 72 h after drug exposure
Experimental: as §2, §1

[11] = system: HT-29 cells; experiment: Cell growth inhibition assay (MTT); type: cell-based, human; conditions: Homo sapiens, HT-29, 72 h after drug exposure
Experimental: as §2, §1

[12] = system: U87MG cells; experiment: Cell growth inhibition assay (MTT); type: cell-based, human; conditions: Homo sapiens, U-87 MG; MTT, 72 h after drug exposure
Experimental: as §2, §1

[13] = system: bovine brain tubulin; experiment: Tubulin polymerization inhibition (turbidimetry); type: biochemical; conditions: for % TPI: compounds tested at 10 µM, with respect to the negative control; for IC50: concentration inhibiting 50% of microtubular protein polymerization in vitro, read-out: TPI IC50
Experimental: Microtubular protein was isolated from calf brain following the modified Shelanski method, based on temperature-dependent assembly/disassembly of tubulin [45]. The protein was stored at −80 °C, and its concentration was determined using the Bradford method before each use. Tubulin polymerization, which occurs when heating a buffered tubulin sample from 4 °C to 37 °C, is accompanied by an increase in the absorbance (at 450 nm) of the sample that was monitored by a Helios α spectrophotometer. […] Then, the temperature was adjusted to 4 °C, and the temperature being shifted to 37 °C allowed for the assembly process of tubulin. The turbidity caused by tubulin polymerization was measured by the increased absorbance at 450 nm. The increase in absorbance obtained for the control sample (without the ligand), which we considered to be 100% tubulin polymerization (0% inhibition), compared with the increase in absorbance determined for the sample containing ligands yielded the degree of tubulin polymerization inhibition (TPI), which is expressed as a percentage value. For the compounds displaying TPI values over 50% at 10 µM, the IC50 value for TPI was calculated. Measurements were performed in triplicate in two independent experiments using microtubular protein from different preparations.

[14] = system: HEK-293 cells; experiment: Cell growth inhibition assay (MTT), non-tumorigenic cells; type: cell-based, human; conditions: Homo sapiens, HEK293, 72 h after drug exposure, non-tumorigenic cell line
Experimental: as §2, §1

[15] = the rest of the tumor cell lines (other than HeLa, HepG2, MCF7, U87MG)

| Compound | IC50 [1] | IC50 [2] | solubility at 72 h [3] | IC50 [5] | IC50 [6] | IC50 [7] | IC50 [8] | IC50 [9] | IC50 [10] | IC50 [11] | IC50 [12] | % TPI [13] | IC50 [13] | IC50 [14] | also measured |
| --- | --- | --- | --- | --- | --- | --- | --- | --- | --- | --- | --- | --- | --- | --- | --- |
| COc1ccc2nc(N(C=O)Cc3ccccn3)sc2c1 [Compound 13, N-(6-methoxybenzo[d]thiazol-2-yl)-N-(pyridin-2-ylmethyl)formamide] | 0.54 µM | 0.195 µM | 90 µg/mL (≈ 301 µM) | 0.327 µM | 0.315 µM | 0.321 µM | 0.221 µM | 0.423 µM | 0.331 µM | 0.557 µM | 0.254 µM | 80% | 5 µM | 9.31 µM | IC50 ([4]; Homo sapiens, MCF7, glioblastoma and MCF7 cells): ~0.2 µM; IC50 ([4]; all the cell lines): 0.3 to 0.5 µM |
| COc1ccc2nc(NCc3cccnc3)sc2c1 [Compound 2, 6-methoxy-N-(pyridin-3-ylmethyl)benzo[d]thiazol-2-amine] | 2.15 µM | 1.91 µM | 57 µg/mL (≈ 210 µM) | 2.11 µM | 1.43 µM | 1.19 µM | 1.17 µM | 1.55 µM | 1.27 µM | 2.23 µM | 1.32 µM |  | > 10 µM | > 10 µM | IC50 ([4]; HeLa, HepG2, MCF7, and U87MG): ~1 µM; IC50 [4, 15]: 2 to 3 µM |
| COc1ccc2nc(NCc3ccncc3)sc2c1 [Compound 3, 6-methoxy-N-(pyridin-4-ylmethyl)benzo[d]thiazol-2-amine] | 3.27 µM | 2.03 µM | 55 µg/mL (≈ 203 µM) | 2.27 µM | 2.01 µM | 1.23 µM | 1.74 µM | 3.31 µM | 1.45 µM | 3.39 µM | 1.51 µM |  | > 10 µM | > 10 µM | IC50 ([4]; HeLa, HepG2, MCF7, and U87MG): ~1 µM; IC50 [4, 15]: 2 to 3 µM |
| CCNC(=O)N(Cc1ccccn1)c1nc2ccc(OC)cc2s1 [Compound 7, 3-ethyl-1-(6-methoxybenzo[d]thiazol-2-yl)-1-(pyridin-2-ylmethyl)urea] | 0.315 µM | 0.096 µM | 98 µg/mL (≈ 286 µM) | 0.125 µM | 0.247 µM | 0.198 µM | 0.251 µM | 0.33 µM | 0.275 µM | 0.303 µM | 0.062 µM | 87% | 4.2 µM | 8.81 µM | IC50 ([4]; the rest of the cell lines (other than glioblastoma U87MG and GL261)): 0.1 to 0.3 µM |
| COc1ccc2nc(N(C=O)Cc3[nH]cnc3C)sc2c1 [Compound 16, N-(6-methoxybenzo[d]thiazol-2-yl)-N-((4-methyl-1H-imidazol-5-yl)methyl)formamide] | > 10 µM | > 10 µM | 165 µg/mL (≈ 546 µM) | > 10 µM | > 10 µM | > 10 µM | > 10 µM | > 10 µM | > 10 µM | > 10 µM | > 10 µM | 0% | > 10 µM | > 10 µM | Tubulin polymerization inhibition (in words) ([13]; 10 µM): not able to inhibit tubulin polymerization |
| Cn1nnc2c(C(N)=O)ncn2c1=O [TMZ, temozolomide, reference compound] | > 10 µM | 179 µM |  | 241 µM | > 10 µM | > 10 µM | > 10 µM | > 10 µM | > 10 µM | > 10 µM | 135 µM |  |  | > 10 µM | IC50 ([4]; glioblastoma cell lines): > 100 µM |
| COc1ccc2nc(N(C=O)Cc3ccccc3)sc2c1 [Compound 17, N-benzyl-N-(6-methoxybenzo[d]thiazol-2-yl)formamide] | > 10 µM | 6.41 µM | 12 µg/mL (≈ 40.2 µM) | > 10 µM | 4.01 µM | 5.55 µM | 5.02 µM | > 10 µM | 3.4 µM | > 10 µM | 5.27 µM | 4% | > 10 µM | > 10 µM |  |
